Measurements published in the supplement of paper PMC4862054.

How the values were obtained:
Settings in all cases: incubation time: 72 h
[1] = tested on: MDA-MB-468; experiment: normalised response (% of control), CellTox Green; higher = less cell death (100 = DMSO, 0 = benzethonium chloride kill control)
Outline: (§1)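 Values are normalised signals, each belonging to one concentration of the series. Breast cancer cells (20 µl suspension) were seeded into 384-well plates with compound at 5 concentrations in 10-fold steps over a compound-specific 10,000-fold range and incubated 72 h. Readouts were CellTox Green fluorescence (485/520 nm), then CellTiter-Glo luminescence after 10 min at room temperature, with each plate set to 0.1 % DMSO as 100 and a positive kill control as 0.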

[2] = tested on: DU-4475; experiment: as above
Outline: as §1

[3] = tested on: CAL-85-1; experiment: as above
Outline: as §1

[4] = tested on: MDA-MB-231; experiment: as above
Outline: as §1

[5] = tested on: MCF-10A; experiment: as above
Outline: as §1

[6] = tested on: CAL-51; experiment: as above
Outline: as §1

[7] = tested on: HCC1143; experiment: as above
Outline: as §1

[8] = tested on: MFM-223; experiment: as above
Outline: as §1

[9] = tested on: CAL-120; experiment: as above
Outline: as §1

[10] = tested on: BT-474; experiment: as above
Outline: as §1

[11] = tested on: BT-549; experiment: as above
Outline: as §1

[12] = tested on: Hs578T; experiment: as above
Outline: as §1

[13] = tested on: HCC1599; experiment: as above
Outline: as §1

[14] = tested on: MDA-MB-436; experiment: as above
Outline: as §1

[15] = tested on: MDA-MB-453; experiment: as above
Outline: as §1

[16] = tested on: HCC1937; experiment: as above
Outline: as §1

[17] = tested on: CAL-148; experiment: as above
Outline: as §1

[18] = tested on: HDQ-P1; experiment: as above
Outline: as §1

[19] = tested on: MDA-MB-468; experiment: normalised response (% of control), CellTiter-Glo; higher = more viable cells (100 = DMSO, 0 = benzethonium chloride kill control)
Outline: as §1

[20] = tested on: DU-4475; experiment: as above
Outline: as §1

[21] = tested on: CAL-85-1; experiment: as above
Outline: as §1

[22] = tested on: MDA-MB-231; experiment: as above
Outline: as §1

[23] = tested on: MCF-10A; experiment: as above
Outline: as §1

[24] = tested on: CAL-51; experiment: as above
Outline: as §1

[25] = tested on: HCC1143; experiment: as above
Outline: as §1

[26] = tested on: SK-BR-3; experiment: as above
Outline: as §1

[27] = tested on: MFM-223; experiment: as above
Outline: as §1

[28] = tested on: CAL-120; experiment: as above
Outline: as §1

[29] = tested on: BT-474; experiment: as above
Outline: as §1

[30] = tested on: BT-549; experiment: as above
Outline: as §1

[31] = tested on: Hs578T; experiment: as above
Outline: as §1

[32] = tested on: HCC1599; experiment: as above
Outline: as §1

[33] = tested on: MDA-MB-436; experiment: as above
Outline: as §1

[34] = tested on: MDA-MB-453; experiment: as above
Outline: as §1

[35] = tested on: HCC1937; experiment: as above
Outline: as §1

[36] = tested on: CAL-148; experiment: as above
Outline: as §1

[37] = tested on: HDQ-P1; experiment: as above
Outline: as §1

| Structure (SMILES) | normalised response [1] | normalised response [2] | normalised response [3] | normalised response [4] | normalised response [5] | normalised response [6] | normalised response [7] | normalised response [8] | normalised response [9] | normalised response [10] | normalised response [11] | normalised response [12] | normalised response [13] | normalised response [14] | normalised response [15] | normalised response [16] | normalised response [17] | normalised response [18] | normalised response [19] | normalised response [20] | normalised response [21] | normalised response [22] | normalised response [23] | normalised response [24] | normalised response [25] | normalised response [26] | normalised response [27] | normalised response [28] | normalised response [29] | normalised response [30] | normalised response [31] | normalised response [32] | normalised response [33] | normalised response [34] | normalised response [35] | normalised response [36] | normalised response [37] |
| --- | --- | --- | --- | --- | --- | --- | --- | --- | --- | --- | --- | --- | --- | --- | --- | --- | --- | --- | --- | --- | --- | --- | --- | --- | --- | --- | --- | --- | --- | --- | --- | --- | --- | --- | --- | --- | --- |
| C[C@@H](C(=O)O)c1ccc(-c2ccccc2)c(F)c1 [Tarenflurbil] (100 nM) | 101% | 98.1% | 101% | 96.1% | 61.1% | 92.8% | 98.1% | 103% | 103% | 93.2% | 98.8% | 89.7% | 99.3% | 72% | 100% | 100% | 102% | 93% | 96.4% | 101% | 95% | 97.3% | 91.7% | 91.1% | 94.8% | 91.6% | 96.2% | 98.3% | 101% | 97.3% | 102% | 106% | 97.9% | 101% | 91.2% | 90.3% | 95.2% |
| Cn1nnc2c(C(N)=O)ncn2c1=O [Temozolomide] (100 nM) | 92.8% | 101% | 107% | 110% | 89.1% | 108% | 96.3% | 102% | 99.2% | 97.8% | 101% | 89.4% | 89.7% | 104% | 105% | 82.5% | 100% | 81.8% | 100% | 96.8% | 93.6% | 101% | 103% | 107% | 101% | 96.5% | 104% | 99.7% | 95.4% | 106% | 103% | 90.9% | 98.8% | 102% | 88.2% | 98.8% | 93.2% |
| CCc1c(C(=O)C(N)=O)c2c(OCC(=O)O)cccc2n1Cc1ccccc1 [Varespladib] (100 nM) | 88.9% | 104% | 99.3% | 104% | 112% | 96.8% | 92.1% | 91.1% | 102% | 104% | 99.1% | 99.9% | 97% | 106% | 105% | 83.1% | 102% | 96% | 95.3% | 98.8% | 98.5% | 103% | 105% | 95.6% | 103% | 101% | 102% | 111% | 98% | 100% | 104% | 95.9% | 98.5% | 97% | 102% | 103% | 101% |
